Experimental data published in patent publication US5602106A, “16-membered macrolide derivatives” (priority 1993, dated 1997).
Values after ≈ are worked out from the molar mass of the structure shown. Like-named read-outs stand apart in the source and are kept apart here.

Key:
Format in all cases: cell-based
[1] = tested on: clinically important Gram-positive bacteria; test: Antimicrobial activity / growth inhibition
Experimental: (§1) The effect of the first aspect of the present invention resides in the creation of a novel and useful 16-membered macrolide derivative. Antimicrobial activities of the compounds of the present invention were determined by measuring minimum inhibitory concentration (MIC). Minimum inhibitory concentration was determined by the agar plate dilution method in the following manner.
(§2) Test strains were subjected to seed culture using Sensitivity test broth (STB, Nissui Pharmaceutical) except that the strains belonging to the genus Streptococcus, Branhamella and Haemophilus were cultured on blood agar plate. A 5 μl portion of cell suspension of the test strains having about 10^6 CFU/ml was inoculated into Sensitivity disk agar (SDA, Nissui Pharmaceutical) supplemented with 5% horse blood and incubated at 37° C. for 20 hours. Then, MIC was measured. […] Antimicrobial activities in vitro of the compounds (1) and (2) are shown in Table 1, and those of the compounds (3) and (4) in Table 3.

test strains = test: Antimicrobial activity in vitro, test strains overall; conditions: for antimicrobial activities compared with compound (58): vs compound (58); for antimicrobial activities in comparison with rokitamycin: vs rokitamycin
Experimental: as §1, §2

S. aureus MS15027 = test: MIC, agar plate dilution method; conditions: Staphylococcus aureus, MS15027, 20 h, read-out: Antimicrobial activity (MIC), 37° C., 20 hours, SDA with 5% horse blood
Experimental: as §1, §2

B. catarrhalis W-0506 = test: MIC, agar plate dilution method; conditions: Moraxella catarrhalis
Experimental: as §1, §2

S. aureus MS15009/pMS99 = test: MIC, agar plate dilution method; conditions: Staphylococcus aureus, MS15009/PMS99, 20 h, read-out: Antimicrobial activity (MIC)
Experimental: as §1, §2

H. influenzae Type b = test: MIC, agar plate dilution method; conditions: Haemophilus influenzae, 20 h, read-out: Antimicrobial activity (MIC), 37° C., 20 hours, SDA with 5% horse blood
Experimental: as §1, §2

S. aureus 209P JC-1 = test: MIC, agar plate dilution method; conditions: Staphylococcus aureus, 209P, 20 h
Experimental: as §1, §2

S. aureus MS15009/pMS98 = test: MIC, agar plate dilution method; conditions: Staphylococcus aureus, MS15009/PMS98, 20 h, read-out: Antimicrobial activity (MIC), 37° C., 20 hours, SDA with 5% horse blood
Experimental: as §1, §2

M. luteus ATCC9341 = test: MIC, agar plate dilution method; conditions: Micrococcus luteus, ATCC9341; 37° C., 20 hours, SDA with 5% horse blood; read-out: Antimicrobial activity (MIC)
Experimental: as §1, §2

K. pneumoniae PCI602 = test: MIC, agar plate dilution method; conditions: Klebsiella pneumoniae, PCI602, 20 h, 37° C., SDA with 5% horse blood, read-out: Antimicrobial activity (MIC)
Experimental: as §1, §2

S. pyogenes Cook = test: MIC, agar plate dilution method; conditions: Streptococcus pyogenes
Experimental: as §1, §2

S. pneumoniae IP692 = test: MIC, agar plate dilution method; conditions: Streptococcus pneumoniae, IP692, 20 h
Experimental: as §1, §2

S. aureus MS15026 = test: MIC, agar plate dilution method; conditions: Staphylococcus aureus, 37° C., 20 hours, SDA with 5% horse blood, read-out: Antimicrobial activity (MIC)
Experimental: as §1, §2

E. faecalis W-73 = test: MIC, agar plate dilution method; conditions: Enterococcus faecalis, W73, 20 h, read-out: Antimicrobial activity (MIC)
Experimental: as §1, §2

S. aureus M133 = test: MIC, agar plate dilution method; conditions: Staphylococcus aureus, M133, 20 h, read-out: Antimicrobial activity (MIC), 37° C., 20 hours, SDA with 5% horse blood
Experimental: as §1, §2

S. aureus M126 = test: MIC, agar plate dilution method; conditions: Staphylococcus aureus, 37° C., 20 hours, SDA with 5% horse blood, read-out: Antimicrobial activity (MIC)
Experimental: as §1, §2

E. coli NIHJ JC-2 = test: MIC, agar plate dilution method; conditions: Escherichia coli, NIHJJC2, 20 h, 37° C., SDA with 5% horse blood, read-out: Antimicrobial activity (MIC)
Experimental: as §1, §2

S. pneumoniae Type 1 = test: MIC, agar plate dilution method; conditions: Streptococcus pneumoniae, TYPE1; 37° C., 20 hours, SDA with 5% horse blood; read-out: Antimicrobial activity (MIC)
Experimental: as §1, §2

B. catarrhalis W-0500 = test: MIC, agar plate dilution method; conditions: Moraxella catarrhalis
Experimental: as §1, §2

S. epidermidis ATCC14990 = test: MIC, agar plate dilution method; conditions: Staphylococcus epidermidis, ATCC14990, 20 h, read-out: Antimicrobial activity (MIC), 37° C., 20 hours, SDA with 5% horse blood
Experimental: as §1, §2

H. influenzae 9334 = test: MIC, agar plate dilution method; conditions: Haemophilus influenzae, 9334, 20 h, read-out: Antimicrobial activity (MIC), 37° C., 20 hours, SDA with 5% horse blood
Experimental: as §1, §2

[2] = read-out: Antimicrobial activity (MIC), 37° C., 20 hours, SDA with 5% horse blood
[3] = W0506, 20 h, read-out: Antimicrobial activity (MIC), 37° C., 20 hours, SDA with 5% horse blood
[4] = 37° C., 20 hours, SDA with 5% horse blood, read-out: Antimicrobial activity (MIC)
[5] = W0500, 20 h, read-out: Antimicrobial activity (MIC), 37° C., 20 hours, SDA with 5% horse blood

| SMILES | antimicrobial activities (in words) [1] | MIC (S. aureus MS15027) [µg/mL] | MIC (S. aureus MS15009/pMS99) [µg/mL] | MIC (H. influenzae Type b) [µg/mL] | MIC (S. aureus MS15009/pMS98) [µg/mL] | MIC (M. luteus ATCC9341) [µg/mL] | MIC (K. pneumoniae PCI602) [µg/mL] | MIC (S. aureus MS15026) [µg/mL] | MIC (E. faecalis W-73) [µg/mL] | MIC (S. aureus M133) [µg/mL] | MIC (S. aureus M126) [µg/mL] | MIC (E. coli NIHJ JC-2) [µg/mL] | MIC (S. pneumoniae Type 1) [µg/mL] | MIC (S. epidermidis ATCC14990) [µg/mL] | MIC (B. catarrhalis W-0506; [3]) [µg/mL] | MIC (S. aureus 209P JC-1; [4]) [µg/mL] | MIC (S. pyogenes Cook; [4]) [µg/mL] | MIC (S. pneumoniae IP692; [4]) [µg/mL] | MIC (H. influenzae 9334) [µg/mL] | MIC (B. catarrhalis W-0500; [5]) [µg/mL] | further results |
| --- | --- | --- | --- | --- | --- | --- | --- | --- | --- | --- | --- | --- | --- | --- | --- | --- | --- | --- | --- | --- | --- |
| CO[C@@H]1[C@@H](O[C@@H]2O[C@H](C)[C@@H](O[C@H]3C[C@@](C)(OC)[C@@H](O)[C@H](C)O3)[C@H](N(C)C)[C@H]2O)[C@@H](CC=O)C[C@@H](C)[C@@H](O)/C=C/C=C/C[C@@H](C)OC(=O)C[C@H]1O [(4), 3"-O-methylleucomycin V] | strong antimicrobial activities | 0.78 (≈ 1.09 µM) | > 100 | 12.5 (≈ 17.5 µM) | 0.39 (≈ 0.545 µM) | 0.05 (≈ 0.0698 µM) | > 100 | > 100 | 0.78 (≈ 1.09 µM) | 0.78 (≈ 1.09 µM) | > 100 | > 100 | 0.05 (≈ 0.0698 µM) | 0.78 (≈ 1.09 µM) |  |  |  |  |  |  | improvement of MIC values over corresponding compounds with free 3"-hydroxyl (midecamycin M1, leucomycin V) (test strains; most of the test strains): improved two to three times; MIC (B. catarrhalis W-0506; W0506, 37° C., 20 hours, SDA with 5% horse blood, read-out: Antimicrobial activity (MIC)): 1.56 µg/mL (≈ 2.18 µM); MIC (S. aureus 209P JC-1; [2]): 0.39 µg/mL (≈ 0.545 µM); MIC (S. pyogenes Cook; 20 h, read-out: Antimicrobial activity (MIC), 37° C., 20 hours, SDA with 5% horse blood): 0.1 µg/mL (≈ 0.14 µM); MIC (S. pneumoniae IP692; [2]): 0.1 µg/mL (≈ 0.14 µM); MIC (B. catarrhalis W-0500; W0500, 37° C., 20 hours, SDA with 5% horse blood, read-out: Antimicrobial activity (MIC)): 1.56 µg/mL (≈ 2.18 µM) |
| CCCCC(=O)O[C@H]1[C@H](C)O[C@@H](O[C@H]2[C@H](N(C)C)[C@@H](O)[C@H](O[C@H]3[C@@H](CC=O)C[C@@H](C)[C@@H](O)/C=C/C=C/C[C@@H](C)OC(=O)C[C@@H](O)[C@@H]3OC)O[C@@H]2C)C[C@@]1(C)OC [(48), 3"-O-methyl-4"-O-n-valerylleucomycin V] | markedly strong microbial activities | 0.2 (≈ 0.25 µM) | > 100 | 6.25 (≈ 7.81 µM) | 0.2 (≈ 0.25 µM) | < 0.025 | > 100 | > 100 | 0.78 (≈ 0.975 µM) | 0.2 (≈ 0.25 µM) | > 100 | > 100 | < 0.025 | 0.2 (≈ 0.25 µM) | 0.2 (≈ 0.25 µM) | 0.05 (≈ 0.0625 µM) | < 0.025 | < 0.025 | 0.78 (≈ 0.975 µM) | 0.1 (≈ 0.125 µM) | antimicrobial activities compared with compound (58) (test strains): slightly superior antimicrobial activities; antimicrobial activities in comparison with rokitamycin (test strains): markedly excellent antimicrobial activities |
| CO[C@@H]1[C@@H](O[C@@H]2O[C@H](C)[C@@H](O[C@H]3C[C@@](C)(OC)[C@@H](OC(=O)C(C)C)[C@H](C)O3)[C@H](N(C)C)[C@H]2O)[C@@H](CC=O)C[C@@H](C)[C@@H](O)/C=C/C=C/C[C@@H](C)OC(=O)C[C@H]1O [(53), 4"-O-isobutyryl-3"-Omethylleucomycin V] | markedly strong microbial activities | 0.2 (≈ 0.254 µM) | > 100 | 6.25 (≈ 7.95 µM) | 0.2 (≈ 0.254 µM) | < 0.025 | > 100 | > 100 | 0.78 (≈ 0.992 µM) | 0.2 (≈ 0.254 µM) | > 100 | > 100 | < 0.025 | 0.2 (≈ 0.254 µM) | 0.2 (≈ 0.254 µM) | 0.05 (≈ 0.0636 µM) | < 0.025 | < 0.025 | 0.39 (≈ 0.496 µM) | 0.2 (≈ 0.254 µM) | antimicrobial activities compared with compound (58) (test strains): slightly superior antimicrobial activities; antimicrobial activities in comparison with rokitamycin (test strains): markedly excellent antimicrobial activities |
| CO[C@@H]1[C@@H](O[C@@H]2O[C@H](C)[C@@H](O[C@H]3C[C@@](C)(OC)[C@@H](OC(=O)CC(C)C)[C@H](C)O3)[C@H](N(C)C)[C@H]2O)[C@@H](CC=O)C[C@@H](C)[C@@H](O)/C=C/C=C/C[C@@H](C)OC(=O)C[C@H]1O [(58), 3"-O-methylleucomycin A1] | markedly strong microbial activities | 0.2 (≈ 0.25 µM) | > 100 | 6.25 (≈ 7.81 µM) | 0.2 (≈ 0.25 µM) | < 0.025 | > 100 | > 100 | 0.78 (≈ 0.975 µM) | 0.39 (≈ 0.488 µM) | > 100 | > 100 | 0.05 (≈ 0.0625 µM) | 0.2 (≈ 0.25 µM) | 0.2 (≈ 0.25 µM) | 0.05 (≈ 0.0625 µM) | 0.05 (≈ 0.0625 µM) | 0.05 (≈ 0.0625 µM) | 0.78 (≈ 0.975 µM) | 0.2 (≈ 0.25 µM) |  |
